This note sets out measurements from patent US12234223B2, “Phthalazinone compound, and preparation method therefor and medical use thereof” (SHANGHAI JEMINCARE PHARMACEUTICALS CO., LTD, priority 2020, dated 2025).

The target in one assay is T1, Androgen receptor (Homo sapiens, UniProt P10275).
T1 construct: Dmax: a maximum degradation degree of AR in VCaP cells; endogenous in cells; host or cells: VCaP cells
T1 sequence (P10275 1-920): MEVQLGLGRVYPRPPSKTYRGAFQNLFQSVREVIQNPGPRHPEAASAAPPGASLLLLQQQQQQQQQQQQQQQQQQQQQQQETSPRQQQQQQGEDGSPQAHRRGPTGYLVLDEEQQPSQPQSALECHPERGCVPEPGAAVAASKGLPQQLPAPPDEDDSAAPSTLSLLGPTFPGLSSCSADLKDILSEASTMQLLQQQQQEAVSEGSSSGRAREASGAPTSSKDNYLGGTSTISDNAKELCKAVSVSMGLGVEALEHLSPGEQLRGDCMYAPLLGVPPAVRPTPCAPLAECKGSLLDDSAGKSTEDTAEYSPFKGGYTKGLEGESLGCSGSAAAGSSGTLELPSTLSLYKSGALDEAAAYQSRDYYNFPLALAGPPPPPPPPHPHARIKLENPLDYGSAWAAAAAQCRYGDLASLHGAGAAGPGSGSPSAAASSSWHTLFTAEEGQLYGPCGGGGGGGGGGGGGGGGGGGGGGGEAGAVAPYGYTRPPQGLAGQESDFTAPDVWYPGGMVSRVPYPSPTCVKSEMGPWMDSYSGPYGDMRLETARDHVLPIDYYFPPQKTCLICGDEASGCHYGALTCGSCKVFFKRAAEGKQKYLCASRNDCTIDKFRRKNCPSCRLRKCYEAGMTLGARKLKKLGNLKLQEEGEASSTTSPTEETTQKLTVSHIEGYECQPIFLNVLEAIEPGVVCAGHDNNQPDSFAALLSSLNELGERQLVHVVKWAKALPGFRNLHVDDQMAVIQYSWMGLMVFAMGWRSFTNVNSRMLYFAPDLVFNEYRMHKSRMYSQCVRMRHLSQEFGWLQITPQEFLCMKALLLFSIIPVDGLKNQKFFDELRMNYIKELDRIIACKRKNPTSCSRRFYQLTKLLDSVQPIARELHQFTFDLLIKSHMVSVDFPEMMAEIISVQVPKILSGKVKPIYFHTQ
Briefly: Androgen receptor In-Cell-Western assay (AR degradation in VCaP cells). It is filed as cell-based. The conditions noted are these: 24 hours treatment; for DC50: concentration for half the maximum degradation degree of AR in VCaP cells; for Dmax: maximum degradation degree of AR in VCaP cells. On the procedure: This assay evaluated compound performance in VCap cells. An intracellular androgen receptor was assayed by In-Cell-Western according to the assay procedure described below.
In a 96-well cell culture plate (Corning 3599) pretreated by poly-D-Lysin, Vcap cells were seeded to a Vcap cell assay medium [phenol red containing DMEM (Gibco Cat. No.: 11995065); fetal bovine serum FBS (Gibco Cat. No.: 10099141C)] at a volume of 100 μL/well and a cell density of 50,000 cells/well. Cells were cultured for at least two days. • 1. First, cells were treated with a compound. The compound was subjected to a gradient dilution by using DMSO and a cell culture medium, so that DMSO contained in the cell culture plate was diluted to 0.5%: a polypropylene plate was used according to the following protocol: • (1) (i) A 200× stock solution plate was prepared in DMSO; (ii) a 10 mM stock solution was diluted at 1:4 (10 μL stock solution+40 μL DMSO=2000 uM) with DMSO to enter row 2; (iii) a 1:4 (10 μL protac+40 μL DMSO) gradient dilution was performed from row 2 to row 9, row 1 was reserved for a 2000 uM reference compound and row 10 was reserved for DMSO. (iv) There were 8 concentrations (the final concentrations on the 200× plate was 2000 uM, 400 uM, 80 uM, etc.) in total. (2) (i) A 3× stock solution was prepared in the medium; (ii) 3 μL of the 200× stock solution was transferred to 197 μL of the medium (by a 12-channel pipette, from row 1 to row 10), i.e. a 3× stock solution plate. (iii) Uniform mixing was performed for the stock solution plate. (3) (i) The medium of Vcap cells was replaced with a fresh medium, with the medium volume of 100 μL. (ii) The uniformly-mixed 3× stock solution was transferred to the cell culture plate (by the 12-channel pipette, 50 μL of the stock solution was transferred from row 1 to row 10). (iii) The cells were cultured for 24 hours. • 2. The expression level of the intracellular androgen receptor after compound treatment was detected, and assay was performed according to the following method. • (1) (i) An equal volume of 8% paraformaldehyde was added to the cell culture plate for cell fixation. A fixative solution in the cell plate was discarded, and the cell plate was washed three times with PBS. (ii) A Triton solution was prepared (the stock solution was diluted at 1:1000). The solution in the cell plate was discarded, and a volume of 200 μL of a Triton diluent was added to each well. (iii) A 2× blocking solution was prepared (a 10× blocking stock solution was diluted at 1:4). The solution in the cell plate was discarded, and a volume of 100 μL of the 2× blocking solution was added to each well. (iv) A primary antibody solution (Androgen receptor Rabbit mAb, Cell Signaling Technology Cat. No.: 5153; 1:1000 dilution) was prepared. The solution in the cell plate was discarded, a volume of 100 μL of a primary antibody diluent was added to each well, and incubation was performed at 4 degrees overnight. (v) The primary antibody solution was discarded, and the cell plate was washed with 1× Wash buffer (Wash buffer in the present application means a washing buffer solution). (vi) A secondary antibody solution (Goat anti Rabbit IgG (H+L) Secondary Antibody, HRP, Thermo Cat. No.: 31460; 1:5000 dilution) was prepared, and a volume of 100 μL of a secondary antibody diluent was added to each well for incubation. (vii) The secondary antibody solution in the cell plate was discarded, and the cell plate was washed with 1× Wash buffer. (viii) A TMB chromogenic solution (BD Cat. No.: 550534) was prepared, and a volume of 100 μL of the chromogenic solution was added to each well. (ix) A volume of 50 μL of a stop solution (BD Cat. No.: 550534) was added to each well. (x) Absorption values at OD 450 nm and 570 nm were read by EnVision. (2) (i) Normalized analysis was performed for the number of cells in each well. The solution in the cell plate was discarded, and the cell plate was washed three times with wash buffer. […]

A further assay deals with VCaP cells. Briefly: Inhibitory effect on VCaP cell proliferation (Cell Titer Glo). It is filed as cell-based. The conditions noted are these: Homo sapiens, 144 h; for IC50: VCaP cells, 5% FBS and 0.1 nM R1881, 6 days; for Emax: maximum degree of VCaP cell proliferation inhibition, 6 days. Here is the method:
A tumor cell line Vcap (ATCC Cat. No. CRL-2876) was respectively cultured with DMEM (Gibco Cat. No. 11965-092) medium containing 10% FBS (Gibco Cat. No. 10099-141C). During testing, Vcap cells were replaced with a DMEM culture fluid containing 5% FBS and 0.1 nM R1881 (Sigma Cat. No. R0908). The assay method was as follows:
Vcap cells were seeded to a 384-well plate (Perkin Elmer Cat. No. 6007460) at a cell density of 1200 cells/well and a volume of 20 μL/well; after the cells were incubated overnight in a carbon dioxide incubator (Thermo), the prepared compound solutions with different concentrations were added at a volume of 5 μL/well; meanwhile, a corresponding solvent was provided as a control; after the cells were continuously incubated in the incubator for 6 days, the cell plate and the contents thereof were equilibrated to room temperature; 25 μL of a Cell Titer Glor (Promega Cat. No. G7573) reagent was added to each well; after vibration and uniform mixing, incubation in the dark was performed for 10-30 minutes, and a signal value was detected with Envision microplate reader (PerkinElmer).
A percentage inhibition rate of compound-treated wells was calculated through solvent control wells on the plate, GraphPad prism was used to fit the percentage inhibition rate data corresponding to different concentrations, and IC50 value was calculated by a 4-parameter nonlinear logistic formula.
Emax: a maximum degree of VCaP cell proliferation inhibition. IC50: a compound concentration required to achieve half the maximum degree of VCaP cell proliferation inhibition.
(In general: ATP-based viability assays read luminescence as a measure of living cells.)

Take `CC1(C)[C@H](NC(=O)c2ccc(N3CCC(CN4CCN(c5ccc6c(=O)n([C@@H]7CCC(=O)NC7=O)ncc6c5)CC4)CC3)cc2)C(C)(C)[C@H]1Oc1ccc(C#N)c(Cl)c1` [Compound 28B]: on Androgen receptor, the DC50 was found to be 0.0072 µM and the Dmax turned out to be 101%. In the assay with VCaP cells, this compound registered a 50% inhibitory concentration (IC50) of 0.033 µM and an Emax of 71%.

In the case of `N#Cc1ccc(O[C@H]2CC[C@H](NC(=O)c3cnc(N4CCC(CN5CCN(c6ccc7c(=O)n(C8CCC(=O)NC8=O)ncc7c6)CC5)CC4)nc3)CC2)cc1Cl` (stereo partly shown) [Compound 14], on Androgen receptor, the DC50 was 0.011 µM and the Dmax is 91%. In the assay with VCaP cells, this compound came in with an IC50 of 0.02 µM and an Emax of 61%.

Regarding `CC1(C)[C@H](NC(=O)c2cnc(N3CCC(CCN4CCN(c5ccc6c(=O)n(C7CCC(=O)NC7=O)ncc6c5)CC4)CC3)nc2)C(C)(C)[C@H]1Oc1ccc(C#N)c(Cl)c1` (stereo partly shown) [Compound 24], on Androgen receptor, the 50% degradation concentration (DC50) amounted to 0.0068 µM and the Dmax is 106%. Also, in the assay on VCaP cells, it took 0.018 µM to reach half-maximal inhibition (IC50) and the Emax was found to be 53%.

Regarding `CC1(C)[C@H](NC(=O)c2cnc(N3CCC(CN4CCN(c5ccc6c(=O)n(C7CCC(=O)NC7=O)ncc6c5)CC4)CC3)nc2)C(C)(C)[C@H]1Oc1ccc(C#N)c(Cl)c1` (stereo partly shown) [Compound 2], at Androgen receptor, half-maximal degradation (DC50) was put at 0.0053 µM and the Dmax is 114%. Moreover, in the assay on VCaP cells, the IC50 was 0.011 µM and the Emax was 60%.

Usually DC50 stands for the concentration giving 50% degradation. The low end stands for degradation at low concentration, the high end for degradation only at high concentration. A word on the Dmax: it is the greatest extent of degradation seen. The IC50 is the concentration at which inhibition is half-maximal. A low value points to inhibition by little substance.
